Here are results for 5 compounds from patent US20260116889A1, “MACROCYCLIC PYRIMIDINE DERIVATIVE, METHOD FOR PREPARING SAME, AND PHARMACEUTICAL COMPOSITION FOR PREVENTION OR TREATMENT OF NEURODEGENERATIVE DISEASE CONTAINING SAME AS ACTIVE INGREDIENT” (WHAN IN PHARMACEUTICAL CO., LTD., priority 2021, published 2026).

Molecules are shown by their SMILES.

The target in data set [1] is T1, wild type LRRK2 (leucine-rich repeat kinase 2) (Homo sapiens, UniProt Q5S007).
T1 construct: purchased Reaction Biology Corporation
T1 sequence (Q5S007 whole entry): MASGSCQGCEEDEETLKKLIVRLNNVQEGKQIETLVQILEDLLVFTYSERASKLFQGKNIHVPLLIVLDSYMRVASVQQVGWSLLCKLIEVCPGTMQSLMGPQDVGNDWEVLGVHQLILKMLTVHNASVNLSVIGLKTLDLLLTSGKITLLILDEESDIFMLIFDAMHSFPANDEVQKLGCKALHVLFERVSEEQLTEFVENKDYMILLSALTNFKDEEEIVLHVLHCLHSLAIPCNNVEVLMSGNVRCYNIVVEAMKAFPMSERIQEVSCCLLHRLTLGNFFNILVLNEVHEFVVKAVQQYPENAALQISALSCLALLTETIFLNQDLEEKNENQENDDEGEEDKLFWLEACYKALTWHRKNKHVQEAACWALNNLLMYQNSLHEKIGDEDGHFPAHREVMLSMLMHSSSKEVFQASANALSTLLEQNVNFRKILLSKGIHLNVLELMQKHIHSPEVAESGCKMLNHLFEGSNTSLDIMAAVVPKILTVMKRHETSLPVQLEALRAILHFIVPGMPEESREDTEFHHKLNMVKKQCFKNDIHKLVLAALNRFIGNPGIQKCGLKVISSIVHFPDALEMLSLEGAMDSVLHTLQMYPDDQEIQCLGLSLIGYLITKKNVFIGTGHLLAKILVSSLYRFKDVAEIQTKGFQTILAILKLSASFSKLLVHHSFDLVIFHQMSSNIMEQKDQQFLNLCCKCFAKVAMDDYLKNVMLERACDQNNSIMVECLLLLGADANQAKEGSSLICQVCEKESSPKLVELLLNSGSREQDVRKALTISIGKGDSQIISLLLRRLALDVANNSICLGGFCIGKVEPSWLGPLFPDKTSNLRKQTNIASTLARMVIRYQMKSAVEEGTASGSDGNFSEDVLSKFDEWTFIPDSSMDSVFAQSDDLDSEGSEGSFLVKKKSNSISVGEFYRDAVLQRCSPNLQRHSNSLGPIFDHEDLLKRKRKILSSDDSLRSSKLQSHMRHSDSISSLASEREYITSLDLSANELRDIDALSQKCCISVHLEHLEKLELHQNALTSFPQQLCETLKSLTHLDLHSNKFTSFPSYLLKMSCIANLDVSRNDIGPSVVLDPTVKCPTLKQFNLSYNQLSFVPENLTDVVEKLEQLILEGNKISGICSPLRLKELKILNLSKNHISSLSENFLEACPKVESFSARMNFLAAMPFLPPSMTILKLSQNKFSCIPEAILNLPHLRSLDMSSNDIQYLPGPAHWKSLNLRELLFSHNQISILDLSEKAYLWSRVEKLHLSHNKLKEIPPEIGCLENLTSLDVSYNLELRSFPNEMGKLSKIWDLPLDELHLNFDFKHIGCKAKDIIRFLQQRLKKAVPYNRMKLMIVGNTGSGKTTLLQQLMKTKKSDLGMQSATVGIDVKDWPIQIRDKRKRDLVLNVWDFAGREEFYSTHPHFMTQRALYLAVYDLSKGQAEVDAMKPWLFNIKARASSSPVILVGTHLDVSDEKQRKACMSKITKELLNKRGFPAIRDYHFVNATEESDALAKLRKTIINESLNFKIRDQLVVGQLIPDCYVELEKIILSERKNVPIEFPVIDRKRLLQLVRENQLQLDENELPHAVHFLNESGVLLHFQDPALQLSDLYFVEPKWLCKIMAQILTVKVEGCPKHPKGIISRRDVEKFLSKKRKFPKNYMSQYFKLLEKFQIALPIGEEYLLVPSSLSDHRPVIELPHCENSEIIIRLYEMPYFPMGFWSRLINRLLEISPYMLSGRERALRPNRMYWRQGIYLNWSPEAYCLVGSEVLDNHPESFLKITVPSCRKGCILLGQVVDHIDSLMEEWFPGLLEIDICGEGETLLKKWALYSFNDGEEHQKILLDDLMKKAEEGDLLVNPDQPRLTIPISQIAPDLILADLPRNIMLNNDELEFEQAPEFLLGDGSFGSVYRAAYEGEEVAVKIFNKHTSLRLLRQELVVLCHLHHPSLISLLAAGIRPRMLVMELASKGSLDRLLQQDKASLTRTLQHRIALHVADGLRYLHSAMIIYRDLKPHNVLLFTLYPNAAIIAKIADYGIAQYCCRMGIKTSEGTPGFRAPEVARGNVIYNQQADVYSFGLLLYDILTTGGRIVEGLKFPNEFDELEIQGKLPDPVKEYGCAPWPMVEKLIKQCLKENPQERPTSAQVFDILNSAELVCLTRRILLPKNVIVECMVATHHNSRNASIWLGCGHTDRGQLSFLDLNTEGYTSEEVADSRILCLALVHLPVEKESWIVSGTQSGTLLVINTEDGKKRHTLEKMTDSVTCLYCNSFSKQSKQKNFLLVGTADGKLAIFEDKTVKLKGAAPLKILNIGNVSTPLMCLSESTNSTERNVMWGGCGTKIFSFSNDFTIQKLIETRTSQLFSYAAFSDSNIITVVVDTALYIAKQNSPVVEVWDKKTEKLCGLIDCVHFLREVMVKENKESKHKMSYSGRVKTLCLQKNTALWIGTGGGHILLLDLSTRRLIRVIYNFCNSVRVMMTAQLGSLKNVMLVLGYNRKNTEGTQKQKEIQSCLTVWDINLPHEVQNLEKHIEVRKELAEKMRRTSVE
The data set can be described thus: HotSpot radiometric kinase assay (Reaction Biology), LRRK2 wild type inhibitory activity. The note with it: 10 μM ATP, 25° C., 120 min. In kind it is biochemical. As to the method: (§1) The experimental method was as follows.
(§2) Specific kinase/substrate pairs were prepared in reaction buffer (20 mM Hepes pH 7.5, 10 mM MgCl2, 1 mM EGTA, 0.02% Brij35, 0.02 mg/ml BSA, 0.1 mM Na3VO4, 2 mM DTT, 1% DMSO) along with the required cofactors. The compounds were transferred to the reaction, and after 20 min, a mixture of ATP (Sigma) and ^33P ATP (PerkinElmer) was added to a final concentration of 10 μM. The reaction was carried out at 25° C. for 120 min and then dropped onto P81 ion exchange filter paper (Whatman). […] IC50 values were obtained using Prism (GraphPad Software).

Data set [2] deals with T2, G2019S mutant of LRRK2 (leucine-rich repeat kinase 2) (Homo sapiens, UniProt Q5S007, G2019S).
T2 construct: purchased Reaction Biology Corporation
T2 sequence (Q5S007 whole entry G2019S): as the sequence (Q5S007 whole entry) above, with G2019S counted along it
The data set can be described thus: HotSpot radiometric kinase assay (Reaction Biology), LRRK2 G2019S mutant inhibitory activity. It is filed as biochemical. The note with it: 10 μM ATP, 25° C., 120 min. As to the method:
as §1, §2

A short description of data set [3]: Blood-brain barrier (BBB) permeability after oral administration, plasma and brain by LC-MS/MS. It is filed as in vivo. The note with it: 5 mg/kg oral administration; plasma and brain tissue at 1 and 3 hours. The protocol: To evaluate the blood-brain barrier permeability, the following experiment was conducted.
The test substance was prepared at a dosage of 5 mg/kg, and after oral administration, the animals were sacrificed at 1 and 3 hours, and blood was collected from the heart and centrifuged to prepare plasma samples. To remove the remaining blood in the body, the brain was removed after cardiac perfusion using 20 ml of saline containing 10 U/ml heparin. The brain tissue was homogenized by adding 3 times the weight of PBS buffer. LC-MS/MS (Agilent, Santa Clara, CA, USA) was used for quantitative analysis of the prepared plasma and brain tissue. The separation of substances in LC used a mobile phase consisting of 20% water with 80% acetonitrile and 0.1% formic acid. The total run time per substance was 3 minutes, and the flow rate was 0.3 ml/min.

For the compound `CCc1ccc2cc1Nc1ncc(Cl)c(n1)NCCCN(C)C2=O` [Example 13, 1^5-chloro-3^6-ethyl-5-methyl-2,5,9-triaza-1 (2,4)-pyrimidina-3 (1,3)-benzenacyclononapane-4-one;2,2,2-trifluoroacetate], the 50% inhibitory concentration (IC50) was found to be 4.98 nM in data set [1] and 4.94 nM in data set [2]. In data set [3], the Kp came to 0.12.
Turning to `COc1ccc2cc1C(=O)N(C)CCCNc1nc(ncc1Cl)N2` [Example 15, 1^5-chloro-3^4-methoxy-5-methyl-2,5,9-triaza-1 (2,4)-pyrimidina-3 (1,3)-benzenacyclononapane-4-one;2,2,2-trifluoroacetate], the IC50 in data set [1] was 26.6 nM; in data set [2], 23.3 nM. Besides, the Kp in data set [3] stood at 0.11.
In the same order, the values of `COc1cc2cc(c1)C(=O)N(C)CCCN(C)c1nc(ncc1C(F)(F)F)N2` [Example 32, 35-methoxy-5,9-dimethyl-1^5-(trifluoromethyl)-2,5,9-triaza-1 (2,4)-pyrimidina-3 (1,3)-benzenacyclononapane-4-one;2,2,2-trifluoroacetate] are 2.89 nM, 0.471 nM and 0.51.
For `COc1cc2cc(c1)C(=O)N(C)CCCNc1nc(ncc1Cl)N2` [Example 14, 1^5-chloro-3^5-methoxy-5-methyl-2,5,9-triaza-1 (2,4)-pyrimidina-3 (1,3)-benzenacyclononapane-4-one;2,2,2-trifluoroacetate], the figures for the IC50 in data set [1] and in data set [2] were 9.24 nM and 9.38 nM, respectively. In data set [3], this compound gave a Kp of 0.56.
For the compound `COc1ccc2cc1Nc1ncc(Cl)c(n1)NCCN(C)C2=O` [Example 6, 1^5-chloro-3^6-methoxy-5-methyl-2,5,8-triaza-1 (2,4)-pyrimidina-3 (1,3)-benzenacyclooctaphane-4-one;2,2,2-trifluoroacetate], the IC50 was determined as 1.87 nM in data set [1] and 4 nM in data set [2]. The compound also had a Kp in data set [3] of 0.06.
